# Source: patent US9345905B2, “Heterocyclic amides compounds which are HDAC6 inhibitors and used as anti-tumoral agents” (Nanjing Allgen Pharma Co. Ltd., priority 2011, dated 2016)
# Like-named read-outs stand apart in the source and are kept apart here.
# Biological target: T1, human HDAC6 (Homo sapiens, UniProt Q9UBN7)
# T1 construct: Reaction Biology Corporation
# T1 sequence (Q9UBN7 1-1215): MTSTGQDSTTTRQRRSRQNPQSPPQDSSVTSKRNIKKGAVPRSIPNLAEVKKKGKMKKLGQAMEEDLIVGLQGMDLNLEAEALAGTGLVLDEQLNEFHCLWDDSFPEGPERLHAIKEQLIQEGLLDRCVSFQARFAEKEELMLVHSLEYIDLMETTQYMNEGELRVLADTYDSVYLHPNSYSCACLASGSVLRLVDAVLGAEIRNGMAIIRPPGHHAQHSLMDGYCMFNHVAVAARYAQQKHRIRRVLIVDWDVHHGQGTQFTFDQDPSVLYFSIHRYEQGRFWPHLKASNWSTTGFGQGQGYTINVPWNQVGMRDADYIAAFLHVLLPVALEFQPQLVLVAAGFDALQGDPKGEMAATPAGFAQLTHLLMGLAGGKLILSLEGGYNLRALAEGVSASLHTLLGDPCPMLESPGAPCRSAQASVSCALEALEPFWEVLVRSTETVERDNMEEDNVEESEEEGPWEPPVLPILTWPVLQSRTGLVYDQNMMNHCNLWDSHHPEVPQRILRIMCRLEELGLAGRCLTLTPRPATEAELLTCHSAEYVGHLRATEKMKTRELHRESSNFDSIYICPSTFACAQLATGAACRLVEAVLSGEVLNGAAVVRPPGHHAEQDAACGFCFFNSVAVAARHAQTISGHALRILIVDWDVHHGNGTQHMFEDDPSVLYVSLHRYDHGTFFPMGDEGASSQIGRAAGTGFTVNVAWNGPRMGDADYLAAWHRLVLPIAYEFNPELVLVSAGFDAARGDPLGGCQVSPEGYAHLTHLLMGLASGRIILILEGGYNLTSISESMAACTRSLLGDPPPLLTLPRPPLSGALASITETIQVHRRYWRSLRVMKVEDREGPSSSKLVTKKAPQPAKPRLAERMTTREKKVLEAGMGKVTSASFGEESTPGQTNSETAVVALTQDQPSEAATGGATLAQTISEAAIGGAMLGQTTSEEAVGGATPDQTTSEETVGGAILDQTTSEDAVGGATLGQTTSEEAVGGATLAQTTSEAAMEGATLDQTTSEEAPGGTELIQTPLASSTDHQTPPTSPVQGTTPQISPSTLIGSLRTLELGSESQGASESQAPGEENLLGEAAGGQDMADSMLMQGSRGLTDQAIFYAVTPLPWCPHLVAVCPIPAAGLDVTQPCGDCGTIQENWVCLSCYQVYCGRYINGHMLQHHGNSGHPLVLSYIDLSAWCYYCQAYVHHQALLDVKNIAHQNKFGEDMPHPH
# Experiment: HDAC6 inhibition, fluorogenic peptide substrate (Reaction Biology Corporation)
# Assay type: biochemical
# Description: The compounds of the present invention were tested for inhibition of human HDAC6 at Reaction Biology Corporation by using 50 μM Fluorogenic peptide from p53 residues 379-382 (RHKKAc) as the substrate.
# [1] = 50 μM fluorogenic peptide from p53 residues 379-382 (RHKKAc) as substrate, read-out: IC50, HDAC6 inhibition
compound,measurement,setting,value
"CN1CCc2c(Sc3ccc(C(=O)NO)cc3)c3ccccc3n2C1 [Example 1, N-Hydroxy-4-((2-methyl-1,2,3,4-tetrahydropyrimido[1,6-a]indol-5-yl)thio)benzamide]",IC50,[1],2.48 nM
"Cc1ccc2c(c1)c(Sc1ccc(C(=O)NO)cc1)c1n2CN(C)CC1 [Example 2, 4-((2,7-Dimethyl-1,2,3,4-tetrahydropyrimido[1,6-a]indol-5-yl)thio)-N-hydroxybenzamide]",IC50,[1],35.5 nM
"CN1CCc2c(Cc3ccc(C(=O)NO)cc3)c3ccccc3n2C1 [Example 3, N-hydroxy-4-((2-methyl-1,2,3,4-tetrahydropyrimido[1,6-a]indol-5-yl)methyl)benzamide]",IC50,[1],10.7 nM
"CN1CCc2c(C(=O)c3ccc(C(=O)NO)cc3)c3ccccc3n2C1 [Example 4, N-hydroxy-4-(2-methyl-1,2,3,4-tetrahydropyrimido[1,6-a]indole-5-carbonyl)benzamide]",IC50,,1490 nM
"CN1CCn2c(c(Sc3ccc(C(=O)NO)cc3)c3ccccc32)C1=O [Example 5, N-hydroxy-4-((2-methyl-1-oxo-1,2,3,4-tetrahydropyrazino[1,2-a]indol-10-yl)thio)benzamide]",IC50,[1],1.76 nM
